The results in this text go back to patent publication US8685967B2, “Substituted triazolopyridines and analogs thereof” (Merck Sharp & Dohme Corp., priority 2009, dated 2014).

In this test the target is T1, Human recombinant PDE10A1 (Homo sapiens, UniProt Q9Y233).
T1 construct: purchased BPS Bioscience, Inc
T1 sequence (Q9Y233 1-779 isoform Q9Y233-1): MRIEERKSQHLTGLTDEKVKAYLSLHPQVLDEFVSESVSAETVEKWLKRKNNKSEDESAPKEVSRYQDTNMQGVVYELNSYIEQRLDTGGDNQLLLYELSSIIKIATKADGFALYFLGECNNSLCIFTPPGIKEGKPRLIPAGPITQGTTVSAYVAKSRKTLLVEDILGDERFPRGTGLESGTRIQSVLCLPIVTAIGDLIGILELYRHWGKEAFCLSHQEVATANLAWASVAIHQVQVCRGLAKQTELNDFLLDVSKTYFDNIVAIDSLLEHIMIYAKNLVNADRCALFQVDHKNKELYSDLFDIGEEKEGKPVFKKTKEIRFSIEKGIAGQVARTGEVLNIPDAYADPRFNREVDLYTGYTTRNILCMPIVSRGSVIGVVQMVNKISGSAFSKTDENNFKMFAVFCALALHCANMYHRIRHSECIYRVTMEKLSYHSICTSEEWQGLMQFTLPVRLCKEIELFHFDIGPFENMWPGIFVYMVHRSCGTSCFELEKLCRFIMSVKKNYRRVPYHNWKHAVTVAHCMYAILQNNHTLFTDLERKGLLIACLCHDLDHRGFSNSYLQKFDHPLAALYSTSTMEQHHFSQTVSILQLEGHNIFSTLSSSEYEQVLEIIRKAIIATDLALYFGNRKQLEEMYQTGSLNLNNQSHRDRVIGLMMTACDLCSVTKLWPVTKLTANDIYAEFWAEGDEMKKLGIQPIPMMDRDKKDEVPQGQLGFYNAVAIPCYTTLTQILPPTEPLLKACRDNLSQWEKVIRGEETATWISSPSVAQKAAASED
In words: In Vitro PDE10 Assay (scintillation proximity assay, [3H]cAMP). The test is classed as biochemical. The note with it: PDE10A1 0.02 nM, 10 nM [3H]cAMP, 30 minutes at room temperature; Ki by Cheng and Prusoff. As for the experimental part: PDE10A1 activity was measured in white opaque 384-well Opti-Plates (Perkin Elmer Life Sciences) using a scintillation proximity assay (GE Healthcare). Human recombinant PDE10A1 was purchased from BPS Bioscience, Inc. The reaction mixture contained PDE10A1 (0.02 nM), 10 nM [^3H]cAMP ([5′,8-^3H]Adenosine 3′,5′-cyclic phosphate, ammonium salt], Amersham) and various concentrations of compound in 50 mM Tris-HCl, pH 7.5, 8.3 mM MgCl2, […] and 0.2% bovine serum albumen in a total volume of 30 μl. The assay was initiated with the addition of substrate and was allowed to proceed for 30 minutes at room temperature before being stopped by the addition of 300 μg yttrium SPA PDE beads. The reaction mixtures were thoroughly mixed, and the beads were allowed to settle for 30 minutes. The plates were then counted in a TopCount scintillation counter. Under these conditions, less than 30% of the substrate was hydrolyzed in the absence of compound. Ki values were determined as described by Cheng and Prusoff (1973).
(In general: SPA uses beads or plates that emit light when radiolabelled molecules are held near them.)
In the case of `CC(C)(C)c1nnc2c(C(=O)NCCCc3nc4ccccc4[nH]3)cc(-c3cccc(O)c3)cn12` [Example 4D], the Ki was below 10 nM.

With `O=C(NCCCc1nc2ccccc2[nH]1)c1cccn2c(C3CC3)nnc12` [Example 1O], the inhibition constant Ki is below 10 nM.

For `O=C(NCCc1nc2ccc(F)cc2[nH]1)c1cc(Br)cn2c(C3CC3)nnc12` [Example 1II], the Ki was below 50 nM.

`O=C(NCCc1nc2cc(Cl)ccc2[nH]1)c1cccn2c(C(F)(F)F)nnc12` [Example 1B]: the Ki was below 50 nM.

Consider `CC(C)c1nnc2c(C(=O)NCCc3nc4cc(Cl)c(F)cc4[nH]3)cccn12` [Example 1DDD], for which the Ki is below 50 nM.

As for `O=C(NCCc1nc2cc(Cl)ccc2[nH]1)c1cccn2nc(Br)nc12` [Example 2G], the Ki was below 50 nM.

For `O=C(NCCc1nc2ccc(F)cc2[nH]1)c1cccn2c(C3CC3)nnc12` [Example 1T], the inhibitory constant (Ki) is below 50 nM.

For the compound `O=C(NCCc1nc2ccccc2[nH]1)c1cc(Br)cn2nc(C3CC3)nc12` [Example 2F], the Ki is below 10 nM.

On to `CC(C)(C)c1nnc2c(C(=O)NCCCc3nc4ccccc4[nH]3)cc(-c3cccnc3)cn12` [Example 4F], for which the Ki was below 50 nM.

`CC(C)(C)c1nnc2c(C(=O)NCCCc3nc4ccccc4[nH]3)cccn12` [Example 1P]: the Ki was below 10 nM.

Turning to `Cn1c(CCNC(=O)c2cccn3c(C4CC4)nnc23)nc2cc(Cl)ccc21` [Example 7A], the Ki is below 50 nM.

Take `COc1ccc2nc(CCNC(=O)c3cccn4c(C5CCC5)nnc34)[nH]c2c1` [Example 1SS]: the Ki is below 10 nM.

As for `CC(C)(C)c1nnc2c(C(=O)NCCc3nc4ccccc4[nH]3)cc(F)cn12` [Example 1MM], the Ki is below 50 nM.

Consider `CC(C)(C)c1nnc2c(C(=O)NCCCc3nc4ccccc4[nH]3)cc(Br)cn12` [Example 1Q], for which the Ki is below 10 nM.

Turning to `O=C(NCCc1nc2cc(Cl)ccc2[nH]1)c1cccn2c(Br)nnc12` [Example 1LL], the Ki was below 50 nM.

Take `O=C(NCCc1nc2cc(Cl)ccc2[nH]1)c1cc(Br)cn2c(C3CC3)nnc12` [Example 1HH]: the Ki is below 50 nM.

For `O=C(NCCc1nc2ccc(F)cc2[nH]1)c1cc(Br)cn2nc(C3CC3)nc12` [Example 2D], the inhibition constant Ki is below 50 nM.

For `CCc1nnc2c(C(=O)NCCc3nc4cc(Cl)ccc4[nH]3)cccn12` [Example 1DD], the Ki is below 50 nM.

As to `CC(C)(C)c1nnc2c(C(=O)NCCc3nc4cc(Cl)ccc4[nH]3)cccn12` [Example 1Z], the inhibition constant Ki is below 10 nM.

As to `CC(C)(C)c1nnc2c(C(=O)NCCc3nc4ccccc4[nH]3)cc(-c3ccncc3)cn12` [Example 4A], the Ki is below 50 nM.

Turning to `CCn1c(CCNC(=O)c2cccn3c(C(C)C)nnc23)nc2ccccc21` [Example 7O], the Ki is below 10 nM.

Take `Cn1c(CCCNc2cccc3ccn4c(C(C)(C)C)nnc4c23)nc2ccccc21` [Example 8B]: the Ki is below 50 nM.

For the compound `Cc1nnc2c(C(=O)NCCc3nc4cc(Cl)ccc4n3C)cccn12` [Example 7K], the Ki was below 50 nM.

With `CC(C)c1nnc2c(C(=O)NCCc3nc4cc(Cl)ccc4[nH]3)cccn12` [Example 1S], the inhibitory constant (Ki) was below 50 nM.

`Cn1c(CCCNc2cccc3ccn4c(C(F)(F)F)nnc4c23)nc2ccccc21` [Example 8C]: the Ki was below 50 nM.

Take `Cc1nnc2c(C(=O)NCCc3nc4cc(Cl)ccc4[nH]3)cccn12` [Example 1FF]: the Ki is below 50 nM.

Consider `Cc1nc2c(C(=O)NCCc3nc4cc(Cl)ccc4[nH]3)cccn2n1` [Example 2B], for which the Ki is below 10 nM.

As for `O=C(NCCc1nc2ccccc2[nH]1)c1cc(Br)cn2c(C3CC3)nnc12` [Example 1I], the Ki is below 50 nM.

With `O=C(NCCc1nc2ccccc2[nH]1)c1cc(F)cn2c(C3CC3)nnc12` [Example 1NN], the Ki was below 50 nM.

`CC(C)(C)c1nnc2c(C(=O)NCCc3nc4ccccc4[nH]3)cc(Br)cn12` [Example 1E]: the inhibition constant Ki is below 50 nM.

In the case of `O=C(NCCc1nc2ccccc2[nH]1)c1cccn2c(C(F)(F)F)nnc12` [Example 1A], the Ki is below 50 nM.

Regarding `Cn1c(CCNC(=O)c2cccn3c(C(C)(C)C)nnc23)nc2cc(Cl)ccc21` [Example 7E], the Ki was below 50 nM.

For the compound `COc1ccc2nc(CCNC(=O)c3cccn4c(C)nnc34)[nH]c2c1` [Example 1EE], the Ki was below 10 nM.

Regarding `O=C(NCCc1nc2cc(Cl)ccc2[nH]1)c1cc(F)cn2c(C3CC3)nnc12` [Example 1FFF], the Ki was below 50 nM.

On to `Cn1c(CCNC(=O)c2cccn3c(C4CC4)nnc23)nc2ccccc21` [Example 7D], for which the Ki is below 50 nM.

Consider `COc1ccc2nc(CCNC(=O)c3cccn4c(C5CC5)nnc34)[nH]c2c1` [Example 1UU], for which the Ki was below 50 nM.

For `COc1ccc2nc(CCNC(=O)c3cccn4c(C(C)C)nnc34)[nH]c2c1` [Example 1XX], the Ki was below 50 nM.

As for `CC(C)c1nnc2c(C(=O)NCCc3nc4ccccc4[nH]3)cccn12` [Example 1GG], the Ki was below 50 nM.

With `O=C(NCCc1nc2cc(Cl)ccc2[nH]1)c1cccn2c(C3CC3)nnc12` [Example 1R], the Ki is below 50 nM.

In the case of `Cn1c(CCNc2cccc3ccn4c(C(F)(F)F)nnc4c23)nc2ccccc21` [Example 8], the Ki was below 50 nM.

In the case of `CC(C)(C)c1nnc2c(C(=O)NCCc3nc4cc(Cl)ccc4s3)cc(Br)cn12` [Example 1M], the inhibitory constant (Ki) is below 10 nM.

Consider `O=C(NCCc1nc2ccccc2[nH]1)c1cccn2c(C3CC3)nnc12` [Example 1BB], for which the Ki was below 50 nM.

Take `CC(C)(C)c1nnc2c(C(=O)NCCCc3nc4ccccc4[nH]3)cc(C#CCO)cn12` [Example 5B]: the Ki is below 50 nM.

`CC(C)(C)c1nnc2c(C(=O)NCCc3nc4ccccc4s3)cc(Br)cn12` [Example 1N]: the Ki is below 10 nM.

On to `O=C(NCCc1nc2c(Cl)cc(C(F)(F)F)cc2[nH]1)c1cccn2c(C3CC3)nnc12` [Example 1VV], for which the Ki was below 10 nM.

With `O=C(NCCc1nc2cc(Cl)ccc2[nH]1)c1cccn2c(C3CCC3)nnc12` [Example 1BBB], the Ki is below 50 nM.

Take `O=C(NCCc1nc2cc(Cl)c(F)cc2[nH]1)c1cccn2c(C3CC3)nnc12` [Example 1ZZ]: the Ki was below 50 nM.

For `CC(C)(C)c1nnc2c(C(=O)NCCc3nc4ccc(F)cc4[nH]3)cccn12` [Example 1AA], the Ki is below 50 nM.

With `CC(C)(C)c1nnc2c(C(=O)NCCCc3nc4ccccc4[nH]3)cc(-c3ccncc3)cn12` [Example 4E], the Ki was below 50 nM.

One may read the Ki as a dissociation constant, usually derived from enzyme kinetics or from competition with a known ligand.
